Data taken from PubChem BioAssay (NCI).
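Briefly, cells in 96-well plates were exposed to five compound concentrations for 48 h, and endpoints were estimated by linear interpolation. Here, GI50 denotes the concentration required for 50% inhibition of growth. TGI marks complete inhibition of growth.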

Key:
Test in all cases: NCI-60 cell line screen, 48 h
MDA-MB-435 = test system: MDA-MB-435
HS 578T breast = test system: HS 578T breast
PC-3 prostate = test system: PC-3 prostate
MALME-3M melanoma = test system: MALME-3M melanoma
MOLT-4 leukemia = test system: MOLT-4 leukemia
MDA-MB-231 breast = test system: MDA-MB-231 breast
T-47D breast = test system: T-47D breast
M19-MEL melanoma = test system: M19-MEL melanoma
HOP-18 NSCLC = test system: HOP-18 NSCLC
SN12K1 renal = test system: SN12K1 renal
XF 498 CNS = test system: XF 498 CNS
SNB-78 CNS = test system: SNB-78 CNS
DMS 114 small cell lung = test system: DMS 114 small cell lung

`O=C(Nc1cccc(-n2ccc3c(NC(=O)c4ccccc4)nccc32)c1)Nc1cc(C(F)(F)F)cc(C(F)(F)F)c1` showed a GI50 (MDA-MB-435) of 1.23 µM, a TGI (MDA-MB-435) of 3.21 µM and a GI50 (HS 578T breast) of 1.44 µM. The TGI (HS 578T breast) was > 50 µM, the GI50 (PC-3 prostate) was 1.58 µM and the TGI (PC-3 prostate) was > 50 µM. For the same molecule, the GI50 (MALME-3M melanoma) was 3.09 µM, the TGI (MALME-3M melanoma) was 35.8 µM and the GI50 (MOLT-4 leukemia) was 1.92 µM. For the same molecule, the TGI (MOLT-4 leukemia) was 36 µM, the GI50 (MDA-MB-231 breast) was 1.42 µM and the TGI (MDA-MB-231 breast) was 4.73 µM. The GI50 (T-47D breast) was 12.6 µM and the TGI (T-47D breast) was > 50 µM.
In the case of `CC(NC(=O)C(C)NC(=O)C(N)CCP(C)(=O)O)C(=O)O` (centres undefined), the TGI (M19-MEL melanoma) was > 100 µM, the TGI (MALME-3M melanoma) was > 100 µM and the TGI (HOP-18 NSCLC) was > 100 µM. For the same molecule, the TGI (SN12K1 renal) was > 100 µM, the TGI (MOLT-4 leukemia) was > 100 µM and the TGI (XF 498 CNS) was > 100 µM. For the same molecule, the TGI (SNB-78 CNS) was > 100 µM.
For `Nc1nc(SCc2ccc([N+](=O)[O-])cc2)nc2c1ncn2C1OC(COP(=O)(O)O)C(O)C1O` (centres undefined), the TGI (MALME-3M melanoma) was > 100 µM, the TGI (DMS 114 small cell lung) was > 100 µM and the TGI (MOLT-4 leukemia) was > 100 µM. For the same molecule, the TGI (XF 498 CNS) was > 100 µM and the TGI (SNB-78 CNS) was > 100 µM.
For `N[C@H](C(=O)O)[C@H]1ON=C(Cl)[C@@H]1O`, the TGI (HS 578T breast) was 97.5 µM, the TGI (M19-MEL melanoma) was > 550 µM and the GI50 (MALME-3M melanoma) was 40.2 µM. The TGI (MALME-3M melanoma) was > 255 µM, the TGI (DMS 114 small cell lung) was > 422 µM and the TGI (HOP-18 NSCLC) was > 550 µM. The TGI (SN12K1 renal) was > 324 µM, the GI50 (MOLT-4 leukemia) was 2.48 µM and the TGI (MOLT-4 leukemia) was 68 µM. The TGI (XF 498 CNS) was > 301 µM and the TGI (SNB-78 CNS) was > 550 µM.
`CCOP(=O)(OCC)/C(C#N)=C/c1cn(C)cn1` was tested, and the TGI (MDA-MB-435) was > 100 µM, the TGI (PC-3 prostate) was > 100 µM and the TGI (MALME-3M melanoma) was > 100 µM. For the same molecule, the TGI (MDA-MB-231 breast) was > 100 µM.
For `O=S(=O)(CCBr)CCBr`, the TGI (M19-MEL melanoma) was 15 µM, the TGI (MALME-3M melanoma) was 9.2 µM and the TGI (DMS 114 small cell lung) was 6.72 µM. The TGI (HOP-18 NSCLC) was 32 µM, the TGI (SN12K1 renal) was 19.7 µM and the TGI (MOLT-4 leukemia) was 7.75 µM.
For `CC1=Nc2nc(Cl)cn2C(=O)C1(Cl)Cl`, the TGI (MDA-MB-435) was > 10 µM, the TGI (HS 578T breast) was > 10 µM and the TGI (PC-3 prostate) was > 10 µM. The TGI (MALME-3M melanoma) was > 10 µM, the TGI (MOLT-4 leukemia) was > 10 µM and the TGI (MDA-MB-231 breast) was > 10 µM. For the same molecule, the TGI (T-47D breast) was > 10 µM.
With `Cc1ccc(N=N/C(=N\NC(=O)c2ccc(C)cc2)c2ccc(N(CCC#N)CCC#N)cc2C)cc1` the TGI (MDA-MB-435) was 65.8 µM, the TGI (HS 578T breast) was 70 µM and the TGI (PC-3 prostate) was > 100 µM. For the same molecule, the TGI (MOLT-4 leukemia) was > 100 µM, the TGI (MDA-MB-231 breast) was > 100 µM and the TGI (T-47D breast) was > 100 µM.
In the case of `C[Si](C)(OCCS(=O)(=O)O)C1(Cc2cccc3ccccc23)S(=O)(=O)OCCOS1(=O)=O`, the TGI (MDA-MB-435) was 43 µM, the TGI (HS 578T breast) was 95 µM and the TGI (PC-3 prostate) was 45.4 µM. The TGI (MOLT-4 leukemia) was > 100 µM, the TGI (MDA-MB-231 breast) was 43.3 µM and the TGI (T-47D breast) was 34.6 µM.
For `Cc1ccc(N2Cc3c(ccc4ccccc34)OP2(=O)Oc2ccc(Cl)c(C)c2)cc1` (centres undefined), the TGI (M19-MEL melanoma) was > 100 µM, the TGI (MALME-3M melanoma) was > 100 µM and the TGI (DMS 114 small cell lung) was > 100 µM. The TGI (HOP-18 NSCLC) was > 100 µM, the TGI (SN12K1 renal) was > 100 µM and the TGI (MOLT-4 leukemia) was > 100 µM. For the same molecule, the TGI (XF 498 CNS) was > 100 µM and the TGI (SNB-78 CNS) was > 100 µM.
With `COc1ccc(-n2cnnc2-c2nsc3ccccc23)cc1` the TGI (M19-MEL melanoma) was > 100 µM, the TGI (DMS 114 small cell lung) was > 100 µM and the TGI (HOP-18 NSCLC) was > 100 µM. The TGI (MOLT-4 leukemia) was > 100 µM and the TGI (SNB-78 CNS) was > 100 µM.
